# In paper PMC11335189, “Revealing molecular determinants governing mambalgin-3 pharmacology at acid-sensing ion channel 1 variants” (Cellular and Molecular Life Sciences: CMLS, 2024):
# Positions of bridges follow the written chain, without caps; N, C: chain ends. No end group written: not given here.
# Legend:
# rASIC1b = molecular target: T1, rASIC1b (Rattus norvegicus, UniProt P55926); assay: TEVC in Xenopus laevis oocytes expressing rASIC1b; format: cell-based; conditions: for remaining activity at 0.3 µM: 300 nM peptide, conditioning pH 7.45, stimulating pH 6, read-out: I/Icontrol; for loss in potency relative to wild-type Ma-3 (estimated): peptides applied at pH 7.45, stimulated at pH 6
# T1 construct: expressed in transfected cells; host or cells: Xenopus laevis oocytes (cRNA injection)
# T1 sequence (P55926 1-559 isoform P55926-3): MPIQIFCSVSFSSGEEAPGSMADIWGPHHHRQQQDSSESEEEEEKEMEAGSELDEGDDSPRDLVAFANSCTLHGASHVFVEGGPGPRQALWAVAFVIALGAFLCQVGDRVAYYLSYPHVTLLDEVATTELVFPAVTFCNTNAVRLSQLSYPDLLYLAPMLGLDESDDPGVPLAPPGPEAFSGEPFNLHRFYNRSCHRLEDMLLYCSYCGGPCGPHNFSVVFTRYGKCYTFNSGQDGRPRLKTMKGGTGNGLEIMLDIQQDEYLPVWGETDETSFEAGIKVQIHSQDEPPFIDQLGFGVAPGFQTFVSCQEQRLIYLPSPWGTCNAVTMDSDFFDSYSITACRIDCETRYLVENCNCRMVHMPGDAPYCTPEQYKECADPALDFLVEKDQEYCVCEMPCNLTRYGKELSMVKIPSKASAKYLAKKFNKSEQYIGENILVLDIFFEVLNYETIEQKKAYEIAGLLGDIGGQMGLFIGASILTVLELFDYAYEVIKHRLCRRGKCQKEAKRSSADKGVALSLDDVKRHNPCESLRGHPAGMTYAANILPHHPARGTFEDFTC
# Method: (§1) Two-electrode voltage-clamp (TEVC) experiments using Xenopus laevis oocytes were conducted as previously described. Briefly, oocytes were surgically removed from anaesthetised female frogs, then treated with collagenase (~ 1 mg/ml, Sigma type I) for 2 h under agitation at room temperature. cRNAs were synthesised using a mMessage mMachine T7 or SP6 transcription kit (Thermo Fisher Scientific Australia Pty Ltd, Scoresby, VIC, Australia) and injected into healthy stage V–VI oocytes at 0.2–20 ng per cell. Different amounts of RNA were used for different wild-type and mutant constructs, as well as to titrate expression levels to record over multiple days and maintaining consistent expression levels. Injected oocytes were incubated at 17 °C for 1–7 days in 50% Leibovitz’s L-15 medium (Gibco, Thermo Fisher Scientific Australia Pty Ltd, Scoresby, VIC, Australia), supplemented with 25 µg/mL gentamicin, 25 µg/mL streptomycin, and 2.5% fetal horse serum. Membrane currents were recorded 2–7 days after cRNA-injection under voltage-clamp at -60 mV (Axon Axoclamp 900 A, Molecular Devices, CA, USA) using two standard glass microelectrodes of 0.5–1 MΩ resistance when filled with 3 M KCl solution. Data were sampled at 2 kHz and filtered at 0.1 kHz using Clampex 10 software (Molecular Devices, CA, USA). A microperfusion system was used to allow fast extracellular solution exchange (bath volume = ~ 30 µL). All experiments were performed at room temperature (18–23 °C) in ND96 (96 mM NaCl, 2 mM KCl, 1.8 mM CaCl2, 2 mM MgCl2, 5 mM HEPES, pH 7.45). In solutions below pH 6.8, HEPES was replaced by MES. All solutions containing peptides contained 0.05% fatty acid free bovine serum albumin to decrease adsorptive losses of peptide to plasticware. For all channels tested, control current magnitudes between 500 and 9000 nA when tested using a conditioning pH of 7.45 and stimulating pH of 6 (except for the chimeras that were stimulated with pH 5) were used for data collection. Before recording any experiments, oocytes were stimulated multiple times with low pH to minimise and stabilise tachyphylaxis/desensitisation, which were then accounted for during analysis. Complete recovery of currents from Ma-3 induced modulation within 3 min of washout at all channels tested allowed for correction for tachyphylaxis/desensitisation during analyses.
# (§2) Specific to this work, the standard protocol was for oocytes to be conditioned at pH 7.45 and channels stimulated every 60 s using a 5 s pH 5 or 6 application, unless stated otherwise. For all concentration-response data, peptides were applied for ~ 50 s between each low pH stimulus application. Activation curves were determined by conditioning oocytes at pH 8 (Fig. 2e − g; and Fig. 5a and b) or 7.45 (Fig. 6; and Supplementary Fig. 2d and c) for 55 s and applying low pH stimuli from 7.25 to 5.0 for 5 s. Steady-state desensitisation (SSD) was determined by applying conditioning solutions of pH values from 8 to 6 for 115 s prior to stimulation by a pH drop to 5 for 5 s. Ma-3 was only applied in the conditioning solution for activation and steady-state desensitisation curves in the presence of peptide. Control pH-dependence curves were determined in the absence of any Ma-3. When assessing the effect of Ma-3 on the rASIC1a: ASIC1b chimeras (C92 and C166; and for the comparative wild-type data), the conditioning pH was 7.45 and stimulating pH 5 (Fig. 3b). Specific details of the conditioning and stimulating pH are noted in each figure legend.
# (§3) Data were analysed using pCLAMP-Clampfit software (Version 11, Molecular Devices, CA, USA) and GraphPad Prism 9.5 and 10.2.2 (GraphPad Software, San Diego, CA, USA). To obtain the Hill coefficient (nH) and half-maximal response (EC50, IC50, or pH50) the Hill equation was fitted to normalised concentration-response curves by using a non-linear fit to the data of a four-parameter logistic equation (“sigmoidal dose-response” in GraphPad Prism 9.5). […]
# [1] = molecular target: T2, rASIC1a S83T/Q84E/R175C/E177G (SQRE) (Rattus norvegicus, UniProt P55926, E177G/Q84E/R175C/S83T); assay: TEVC oocytes, rASIC1a quadruple mutant SQRE; format: cell-based; conditions: for remaining activity at 0.3 µM: 300 nM peptide, conditioning pH 7.45, stimulating pH 6, read-out: I/Icontrol
# T2 construct: expressed in transfected cells; host or cells: Xenopus laevis oocytes (cRNA injection)
# T2 sequence (P55926 1-526 S83T/Q84E/R175C/E177G): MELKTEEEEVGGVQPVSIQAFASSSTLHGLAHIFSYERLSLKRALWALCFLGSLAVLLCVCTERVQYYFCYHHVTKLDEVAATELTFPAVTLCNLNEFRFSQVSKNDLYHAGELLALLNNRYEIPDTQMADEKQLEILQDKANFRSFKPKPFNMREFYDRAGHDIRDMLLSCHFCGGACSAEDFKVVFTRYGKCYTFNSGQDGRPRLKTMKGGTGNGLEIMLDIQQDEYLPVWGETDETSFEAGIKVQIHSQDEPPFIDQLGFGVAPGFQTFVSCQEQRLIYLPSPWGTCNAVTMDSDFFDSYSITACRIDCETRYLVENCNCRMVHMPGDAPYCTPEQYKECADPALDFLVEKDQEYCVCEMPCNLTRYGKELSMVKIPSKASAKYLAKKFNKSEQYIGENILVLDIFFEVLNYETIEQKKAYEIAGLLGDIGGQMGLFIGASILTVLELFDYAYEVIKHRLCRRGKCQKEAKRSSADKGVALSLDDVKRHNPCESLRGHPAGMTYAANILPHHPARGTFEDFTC
# Method: as §1, §2, §3
# [2] = 100 nM Ma-3, conditioning pH 8, mean ± SEM
# [3] = 100 nM Ma-3, stimulating pH 5, mean ± SEM
# [4] = 100 nM Ma-3 in conditioning solution, conditioning pH 8, Hill fit, mean ± SEM, n = 5–8
# [5] = 100 nM Ma-3 in conditioning solution, stimulating pH 5, Hill fit, mean ± SEM, n = 5–8
Substance,remaining activity at 0.3 µM (rASIC1b; n = 5–8),loss in potency relative to wild-type Ma-3 (estimated) (rASIC1b),remaining activity at 0.3 µM ([1]; n = 5–8),"shift in the activation curve (rASIC1b; 100 nM Ma-3, conditioning pH 8)",slope of activation curve in presence of Ma-3 (rASIC1b; [2]),"shift of the SSD curve towards alkaline values (rASIC1b; 100 nM Ma-3, stimulating pH 5)",slope of SSD curve in presence of Ma-3 (rASIC1b; [3]),pH50 of activation in presence of Ma-3 (rASIC1b; [4]),pH50 of steady-state desensitisation (SSD) in presence of Ma-3 (rASIC1b; [5]),"t1/2 of onset of inhibition (rASIC1b; 300 nM Ma-3 (~ 10 times the IC50) applied at pH 7.45 for different durations, single exponential fit, n = 5)","pH50 of activation in presence of Ma-3 (rASIC1b; 300 nM Ma-3, conditioning pH 7.45, Hill fit, n = 5–6)",time of Ma-3 application to maximal inhibition (rASIC1b; 300 nM Ma-3 at pH 7.45),"t1/2 of recovery of currents from inhibition (washout) (rASIC1b; after 300 nM Ma-3, pH 7.45 conditioning, single exponential fit, n = 5)","shift of the activation curve towards acidic values ([1]; 100 nM Ma-3, conditioning pH 8)","slope of activation curve in presence of Ma-3 [1, 2]","change of pH50 of the SSD curve ([1]; 100 nM Ma-3, stimulating pH 5)","slope of SSD curve in presence of Ma-3 [1, 3]","pH50 of activation in presence of Ma-3 [1, 4]","pH50 of steady-state desensitisation (SSD) in presence of Ma-3 [1, 5]"
"H-SLKCYQHGKVVTCHRDAKFCYHNIGMPFRNLKLILQGCSSSCSETENNKCCSTDRCNK (disulfide 4-20, 13-38, 42-50, 51-56 (inferred)) [M16A]",80%,> 30 fold,56%,,,,,,,,,,,,,,,,
"H-SLKCYQHGAVVTCHRDMKFCYHNIGMPFRNLKLILQGCSSSCSETENNKCCSTDRCNK (disulfide 4-20, 13-38, 42-50, 51-56 (inferred)) [K8A]",91%,> 30 fold,65%,,,,,,,,,,,,,,,,
"H-SLKCYQHGKVVTCHRDMKFCYHNIGMPFRNLKLILQGCSSSCSETENNKCCSTDRCNK (disulfide 4-20, 13-38, 42-50, 51-56 (inferred)) [Ma-3, mambalgin-3]",40%,,48%,no shift,3.69 ± 0.56,0.06 pH units,2.41 ± 0.51,6.03 ± 0.02,7.04 ± 0.04,3.8 s,6.17,≤ 45 s,12.8 s,0.11 pH units,2.68 ± 0.34,remained unchanged,5.47 ± 0.95,6.03 ± 0.02,7.12 ± 0.01
